Here are results for 1 compound from patent US10426755B2, “Methods for inhibiting cancer cells” (Chang Gung Memorial Hospital, Chiayi, priority 2015, dated 2019).

Entries after “also recorded” stand apart in the source; their conditions may differ.

Holding throughout (type): cell-based
Assay [1] relates to CCL2 in RAW 264.7 cells/DU145 co-culture. Nature of the assay: CCL2 ELISA, RAW 264.7/DU145 co-culture. To be noted: DT-treated macrophage/DU145 co-culture medium; 5 or 10 μM DT, 24 hours; FIG. 15 (c). Here is the method: As illustrated in Example 10, the production of CCL2 was inhibited by DT in both prostate cancer cells and macrophage, the effect of DT on monocyte/cancer cell co-culture and macrophage/cancer cell co-culture was examined using the invasion assay described in Example 9. • (a) THP1 monocytes, Raw264.7 macrophage, monocyte/prostate cancer co-culture and macrophage/prostate cancer co-culture were treated with a vehicle (DMSO), 5 or 10 μM DT for 24 hours, the cultured medium was collected and placed into the lower chamber of a transwell plate. • (b) Prostate cancer cells (PC3, DU145 and 22RV1) were placed in the cell invasion assay). The level of CCL2 in the invasion assay was measured by ELIZA method.

Assay [2] relates to CCL2 in RAW264.7 macrophages. Put plainly: CCL2 ELISA of culture medium, RAW264.7 macrophages. To be noted: 5 or 10 μM DT, 24 hours, vs DMSO, FIG. 14 (a). As for the experimental part: It has been reported that increased CCL2 expression enhances cancer cell metastasis via macrophage recruitment. The effect of DT on CCL2 expression in RAW264.7 macrophages, THP1 monocytes and prostate cancer cells (metastatic DU145 and hormone therapy resistant and metastatic PC3) was examined by treating the cells with DMSO (control), 5 or 10 μM DT for 24 hours.
The culture medium was collected and the concentration of CCL2 was measured using ELISA assay.

Assay [3] concerns prostate cancer cells (metastatic DU145, PC3, 22RV1). Nature of the assay: Cell migration (wound-healing) assay, prostate cancer cells. Conditions: DT vs control vehicle, 24 h, dose dependent; FIG. 12 (b), (d), (f). As for the experimental part:
(§1) An in vitro evaluation of the effect of DT on lung cancer cells (A549 and chemotherapy resistant/metastatic H460), prostate cancer cells (metastatic DU145) and colorectal cancer cells (chemotherapy resistant HCT116) invasion and migration was performed, using cell invasion assay and cell migration assay.
Cell Migration Assay: In vitro wound-healing assay was used to assess cell motility in two dimensions. Cancer cells were plated overnight to achieve a subconfluent cell layer in 24-well plates. A scratch was made on the cell layer with a micropipette tip, and cultures were washed twice with serum-free medium to remove floating cells. Cancer cells were incubated in a culture medium containing DT or the control vehicle. Wound healing was visualized by comparing photographs taken at the time of adding the DT/control vehicle and 24 h later. Three experiments were done in quadruplicates.

For assay [4], the system named is colorectal cancer cells (chemotherapy resistant HCT116). Nature of the assay: Cell invasion assay (transwell, Matrigel), colorectal cancer cells. Conditions: 5 or 10 μM DT, 3 days, vs control vehicle; FIG. 13 (a). Here is the method:
as §1
Cell Invasion Assay: cells of interest were treated with a control vehicle, 5 or 10 μM of DT and incubated for 3 days. 1×10^5 cells were placed into the upper chamber of transwell plates (8 μm) with membranes pre-coated with 20% Matrigel and the bottom chamber contained 600 μL media supplemented with 10% fetal bovine serum (FBS). The cells migrated to the bottom of the chamber were fixed, stained and counted.

For assay [5], the system named is lung cancer cells (A549 and chemotherapy-resistant/metastatic H460). Nature of the assay: Annexin V/PI flow cytometry apoptosis/necrosis, lung cancer cells. To be noted: 10 or 20 μM DT, 24-48 hours, vs PBS and DMSO vehicle (CT); time dependent; FIG. 7. As for the experimental part:
The effect of DT on metastatic prostate cancer cells (hormone therapy-resistant PC3, DU145 and LNCaP); lung cancer cells (A549 and chemotherapy-resistant/metastatic H460); and breast cancer cells (MCF-7, tamoxifen-resistant MCF7 and MDA MB-231) was assessed.
1×10^6 Cancer cells were seeded in a 100-mm plate and cultured overnight. The cancer cells were treated with phosphate buffered saline (PBS), a Dimethyl sulfoxide (DMSO) vehicle (CT), 10 or 20 μM of DT for 24-48 hours, then collected and washed with cold PBS. The supernatant was removed by centrifugation and resuspended in FITC Annexin V binding buffer and Propidium iodide (PI) (Annexin V-FITC Apoptosis Detection Kit, commercially available from Strong Biotech Corporation, Taiwan). The suspended cancer cells were stained at room temperature, in the dark for 15 min and analyzed by the BD FACSCanto™ flow cytometry (Becton Dickinson, USA). The amount of early apoptosis, late apoptosis, and necrosis was measured as the percentage of annexin-V positive/PI negative (Q4 in the FACS images), annexin-V positive/PI positive (Q2 in the FACS images), and annexin-V negative/PI positive cells (Q1 in the FACS images), respectively. Normal cells are in […] of the FACS images.

The test system of assay [6] is skp2 and downstream genes in HCT116 colon cancer cells. Put plainly: skp2 and downstream gene mRNA expression, colon cancer cells. To be noted: various concentrations of DT vs DMSO, FIG. 10 (g), (i). As for the experimental part: It has been reported that skp2 plays an important role in the metastasis of cancer cells. An in vitro evaluation of the effect of DT on prostate cancer cell metastasis was performed, by measuring the mRNA expression of skp2 in the following prostate cancer cell lines: meatstatic DU145 cells (Panels i-j of FIG. 9), hormone therapy resistant and metastatic PC3 cells (Panel h of FIG. 9), and 22RV1 cells (Panels k-l of FIG. 9), A549 lung cancer cells (Panels (c)-(e) of FIG. 10), chemotherapy-resistant/metastatic H460 lung cancer cells (Panels (d) and (f) of FIG. 10), HCT116 colon cancer cells (Panels (g) and (i) of FIG. 10) and MCF7-tamoxifen resistant breast cancer cells (Panels (h) and (j) of FIG. 10) […].
The cancer cells were treated with DMSO and various concentrations of DT.

As for `Cc1cccc2c3c(ccc12)C(=O)C1=C(OCC1C)C3=O` (stereo not drawn) [DT, dihydroisotanshinone I], the “concentration of CCL2” value in assay [1] is given as “significantly reduced”. In assay [2], the “production of CCL2 in macrophages” value was “effectively inhibit the production of CCL2”. Further, the “prostate cancer cell migration into the wounded area” value in assay [3] is “reduced the motility and migration of prostate cancer cells; also recorded: reduced prostate cancer cell migration into the wounded area”. Besides, in assay [4], the “colorectal cancer cell motility (invasion assay)” value is given as “reduced the motility of chemotherapy resistant colorectal cancer cells; also recorded: reduced the motility of colon cancer cells”. Moreover, in assay [5], the “early apoptosis, late apoptosis and necrosis, lung cancer cells” value was “more early apoptosis, late apoptosis and necrosis; also recorded: induced lung cancer cell apoptosis/necrosis”. The “mRNA expression of skp2 and its downstream genes, colorectal cancer” value in assay [6] was “effectively inhibit mRNA expression of skp2 and its downstream genes; also recorded: reduces skps and its downstream genes, MMP2, MMP9 and E-cadherin”.
